# Measurements published in the NIST ThermoML archive (doi:10.1016/j.fluid.2013.09.022).
# ± gives the expanded uncertainty stated by the source.
# Experiment: xn = mol fraction of the nth substance listed
# Details: Gas, isochoric method
structure (smiles),measurement,setting,value
"F/C=C/C(F)(F)F [trans-1,3,3,3-tetrafluoropropene] + O=C=O",molar volume,"282.98 K, 1378 kPa, x2 = 0.859",0.00149 ± 1e-05 m3/mol
same,molar volume,"292.75 K, 1458.4 kPa, x2 = 0.859",0.001491 ± 1e-05 m3/mol
same,molar volume,"293.11 K, 1207.5 kPa, x2 = 0.733",0.001776 ± 1e-05 m3/mol
same,molar volume,"293.15 K, 1053.5 kPa, x2 = 0.642",0.002057 ± 1e-05 m3/mol
same,molar volume,"302.65 K, 741.2 kPa, x2 = 0.254",0.002778 ± 1e-05 m3/mol
same,molar volume,"302.78 K, 834.7 kPa, x2 = 0.331",0.002626 ± 1e-05 m3/mol
same,molar volume,"302.95 K, 1530.5 kPa, x2 = 0.859",0.001492 ± 1e-05 m3/mol
same,molar volume,"303.12 K, 1086.9 kPa, x2 = 0.563",0.002066 ± 1e-05 m3/mol
same,molar volume,"303.12 K, 1281.1 kPa, x2 = 0.733",0.001777 ± 1e-05 m3/mol
same,molar volume,"303.15 K, 934.1 kPa, x2 = 0.459",0.002372 ± 1e-05 m3/mol
same,molar volume,"303.19 K, 1105.4 kPa, x2 = 0.642",0.002058 ± 1e-05 m3/mol
same,molar volume,"313.09 K, 773.6 kPa, x2 = 0.155",0.002926 ± 1e-05 m3/mol
same,molar volume,"313.1 K, 879.9 kPa, x2 = 0.331",0.002627 ± 1e-05 m3/mol
same,molar volume,"313.1 K, 1598.3 kPa, x2 = 0.859",0.001492 ± 1e-05 m3/mol
same,molar volume,"313.11 K, 824.7 kPa, x2 = 0.254",0.00278 ± 1e-05 m3/mol
same,molar volume,"313.11 K, 979 kPa, x2 = 0.459",0.002373 ± 1e-05 m3/mol
same,molar volume,"313.14 K, 1137.1 kPa, x2 = 0.563",0.002067 ± 1e-05 m3/mol
same,molar volume,"313.15 K, 1337.5 kPa, x2 = 0.733",0.001778 ± 1e-05 m3/mol
same,molar volume,"313.18 K, 1155.7 kPa, x2 = 0.642",0.002059 ± 1e-05 m3/mol
same,molar volume,"323.03 K, 1183.9 kPa, x2 = 0.563",0.002067 ± 1e-05 m3/mol
same,molar volume,"323.04 K, 918.1 kPa, x2 = 0.331",0.002628 ± 1e-05 m3/mol
same,molar volume,"323.06 K, 861.2 kPa, x2 = 0.254",0.002781 ± 1e-05 m3/mol
same,molar volume,"323.06 K, 1392.7 kPa, x2 = 0.733",0.001778 ± 1e-05 m3/mol
same,molar volume,"323.07 K, 808.6 kPa, x2 = 0.155",0.002928 ± 1e-05 m3/mol
same,molar volume,"323.07 K, 1661.1 kPa, x2 = 0.859",0.001493 ± 1e-05 m3/mol
same,molar volume,"323.09 K, 1019.8 kPa, x2 = 0.459",0.002374 ± 1e-05 m3/mol
same,molar volume,"323.12 K, 1201.6 kPa, x2 = 0.642",0.00206 ± 1e-05 m3/mol
same,molar volume,"332.99 K, 1059.7 kPa, x2 = 0.459",0.002375 ± 1e-05 m3/mol
same,molar volume,"333.02 K, 897.5 kPa, x2 = 0.254",0.002782 ± 1e-05 m3/mol
same,molar volume,"333.03 K, 1246.4 kPa, x2 = 0.642",0.002061 ± 1e-05 m3/mol
same,molar volume,"333.04 K, 1723.3 kPa, x2 = 0.859",0.001494 ± 1e-05 m3/mol
same,molar volume,"333.05 K, 843.8 kPa, x2 = 0.155",0.002929 ± 1e-05 m3/mol
same,molar volume,"333.07 K, 955.4 kPa, x2 = 0.331",0.002629 ± 1e-05 m3/mol
same,molar volume,"333.08 K, 1445.3 kPa, x2 = 0.733",0.001779 ± 1e-05 m3/mol
same,molar volume,"333.15 K, 1230.3 kPa, x2 = 0.563",0.002068 ± 1e-05 m3/mol
same,molar volume,"342.9 K, 1274.8 kPa, x2 = 0.563",0.002069 ± 1e-05 m3/mol
same,molar volume,"342.93 K, 1098.9 kPa, x2 = 0.459",0.002376 ± 1e-05 m3/mol
same,molar volume,"343.01 K, 1497.2 kPa, x2 = 0.733",0.00178 ± 1e-05 m3/mol
same,molar volume,"343.02 K, 991.5 kPa, x2 = 0.331",0.00263 ± 1e-05 m3/mol
same,molar volume,"343.05 K, 877.3 kPa, x2 = 0.155",0.00293 ± 1e-05 m3/mol
same,molar volume,"343.06 K, 1785.7 kPa, x2 = 0.859",0.001494 ± 1e-05 m3/mol
same,molar volume,"343.07 K, 1291.7 kPa, x2 = 0.642",0.002062 ± 1e-05 m3/mol
same,molar volume,"343.2 K, 933 kPa, x2 = 0.254",0.002783 ± 1e-05 m3/mol
same,molar volume,"352.96 K, 1140 kPa, x2 = 0.459",0.002377 ± 1e-05 m3/mol
same,molar volume,"353.01 K, 1320.4 kPa, x2 = 0.563",0.00207 ± 1e-05 m3/mol
same,molar volume,"353.02 K, 910 kPa, x2 = 0.155",0.002931 ± 1e-05 m3/mol
same,molar volume,"353.03 K, 1336.3 kPa, x2 = 0.642",0.002062 ± 1e-05 m3/mol
same,molar volume,"353.03 K, 1847.2 kPa, x2 = 0.859",0.001495 ± 1e-05 m3/mol
same,molar volume,"353.1 K, 1027.7 kPa, x2 = 0.331",0.002631 ± 1e-05 m3/mol
same,molar volume,"353.12 K, 967.3 kPa, x2 = 0.254",0.002784 ± 1e-05 m3/mol
same,molar volume,"353.14 K, 1549.7 kPa, x2 = 0.733",0.001781 ± 1e-05 m3/mol
same,molar volume,"362.89 K, 1178.4 kPa, x2 = 0.459",0.002378 ± 1e-05 m3/mol
same,molar volume,"362.94 K, 1380.5 kPa, x2 = 0.642",0.002063 ± 1e-05 m3/mol
same,molar volume,"363.03 K, 1000.8 kPa, x2 = 0.254",0.002786 ± 1e-05 m3/mol
same,molar volume,"363.05 K, 1365.6 kPa, x2 = 0.563",0.002071 ± 1e-05 m3/mol
same,molar volume,"363.08 K, 942.8 kPa, x2 = 0.155",0.002933 ± 1e-05 m3/mol
same,molar volume,"363.08 K, 1908.8 kPa, x2 = 0.859",0.001496 ± 1e-05 m3/mol
same,molar volume,"363.12 K, 1601.3 kPa, x2 = 0.733",0.001781 ± 1e-05 m3/mol
same,molar volume,"363.14 K, 1063.4 kPa, x2 = 0.331",0.002632 ± 1e-05 m3/mol
